{"source": "paper PMC7237647", "about": "“Synthesis, in vitro and in vivo evaluation of ^11C-O-methylated arylpiperazines as potential serotonin 1A (5-HT1A) receptor antagonist radiotracers” (EJNMMI Radiopharmacy and Chemistry, 2020)", "key": {"D3R": {"biological_target": "T1, D3R (Homo sapiens, UniProt P35462)", "T1 construct": "NIMH-PDSP", "T1 sequence (P35462 whole entry)": "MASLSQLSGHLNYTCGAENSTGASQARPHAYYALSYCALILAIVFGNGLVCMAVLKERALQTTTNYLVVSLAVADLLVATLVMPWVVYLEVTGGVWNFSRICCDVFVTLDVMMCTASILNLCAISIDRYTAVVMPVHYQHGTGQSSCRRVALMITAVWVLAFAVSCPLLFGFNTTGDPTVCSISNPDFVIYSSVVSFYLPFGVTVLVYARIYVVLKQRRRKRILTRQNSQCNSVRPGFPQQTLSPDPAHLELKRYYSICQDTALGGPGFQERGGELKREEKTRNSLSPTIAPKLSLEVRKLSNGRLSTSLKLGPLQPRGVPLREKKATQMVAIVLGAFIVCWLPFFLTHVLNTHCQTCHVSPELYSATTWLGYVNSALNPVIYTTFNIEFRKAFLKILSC", "experiment": "NIMH-PDSP radioligand binding assay, D3R", "method": "(§1) . Cross selectivity for biogenic amines, neurotransmitter receptors, and transporters were determined by radioligand binding assays through NIMH- PDSP using validated and established protocols ([NIMH-PDSP Assay Protocol Book Version III, March 2018])."}, "Alpha1B": {"biological_target": "T2, Alpha1B (Homo sapiens, UniProt P35368)", "T2 construct": "NIMH-PDSP", "T2 sequence (P35368 whole entry)": "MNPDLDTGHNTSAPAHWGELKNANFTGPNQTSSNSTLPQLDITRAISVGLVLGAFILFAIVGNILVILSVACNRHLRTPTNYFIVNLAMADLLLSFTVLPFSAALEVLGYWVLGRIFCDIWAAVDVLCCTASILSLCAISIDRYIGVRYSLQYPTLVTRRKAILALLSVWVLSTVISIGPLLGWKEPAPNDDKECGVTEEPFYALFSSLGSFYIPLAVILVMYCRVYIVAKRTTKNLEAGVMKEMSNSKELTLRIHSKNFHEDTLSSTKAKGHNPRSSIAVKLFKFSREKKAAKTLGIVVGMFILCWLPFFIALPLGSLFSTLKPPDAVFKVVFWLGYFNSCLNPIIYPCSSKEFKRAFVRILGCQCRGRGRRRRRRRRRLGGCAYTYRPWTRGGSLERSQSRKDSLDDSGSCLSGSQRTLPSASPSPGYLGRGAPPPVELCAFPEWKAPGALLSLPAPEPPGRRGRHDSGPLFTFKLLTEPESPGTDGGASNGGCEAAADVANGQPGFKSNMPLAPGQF", "experiment": "NIMH-PDSP radioligand binding assay, Alpha1B"}, "Beta Receptors": {"biological_target": "Beta Receptors", "experiment": "NIMH-PDSP radioligand binding assay, Beta Receptors"}, "5-HT2C [1]": {"biological_target": "T3, 5-HT2C (Homo sapiens, UniProt P28335)", "T3 construct": "NIMH-PDSP", "T3 sequence (P28335 33-458)": "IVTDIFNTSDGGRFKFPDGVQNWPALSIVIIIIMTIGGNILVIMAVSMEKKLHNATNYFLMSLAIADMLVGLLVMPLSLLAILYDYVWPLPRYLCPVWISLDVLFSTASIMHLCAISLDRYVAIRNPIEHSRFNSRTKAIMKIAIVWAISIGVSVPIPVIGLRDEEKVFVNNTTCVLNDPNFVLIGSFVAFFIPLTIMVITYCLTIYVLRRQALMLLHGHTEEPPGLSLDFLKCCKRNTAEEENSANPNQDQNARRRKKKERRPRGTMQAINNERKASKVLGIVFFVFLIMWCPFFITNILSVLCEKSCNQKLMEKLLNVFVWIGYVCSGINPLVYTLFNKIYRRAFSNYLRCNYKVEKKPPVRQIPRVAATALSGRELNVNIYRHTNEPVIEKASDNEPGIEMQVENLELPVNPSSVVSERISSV", "experiment": "NIMH-PDSP radioligand binding assay, 5-HT2C"}, "5-HT2B": {"biological_target": "T4, 5-HT2B (Homo sapiens, UniProt P41595)", "T4 construct": "NIMH-PDSP", "T4 sequence (P41595 whole entry, species assumed)": "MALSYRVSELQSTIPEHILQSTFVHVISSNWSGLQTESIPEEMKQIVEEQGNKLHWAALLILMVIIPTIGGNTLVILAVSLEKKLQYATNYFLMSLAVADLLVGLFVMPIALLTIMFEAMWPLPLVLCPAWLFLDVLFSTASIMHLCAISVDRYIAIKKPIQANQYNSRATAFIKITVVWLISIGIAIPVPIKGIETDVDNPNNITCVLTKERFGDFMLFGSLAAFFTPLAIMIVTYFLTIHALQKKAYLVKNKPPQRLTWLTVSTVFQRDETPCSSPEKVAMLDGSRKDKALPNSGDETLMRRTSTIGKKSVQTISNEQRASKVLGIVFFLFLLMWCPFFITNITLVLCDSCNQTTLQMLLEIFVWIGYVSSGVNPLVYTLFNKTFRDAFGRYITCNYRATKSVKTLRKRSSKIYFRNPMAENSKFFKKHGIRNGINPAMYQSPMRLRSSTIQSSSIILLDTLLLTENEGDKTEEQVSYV", "experiment": "NIMH-PDSP radioligand binding assay, 5-HT2B", "method": "as §1"}, "5-HT6": {"biological_target": "T5, 5-HT6 (Homo sapiens, UniProt P50406)", "T5 construct": "NIMH-PDSP", "T5 sequence (P50406 whole entry, species assumed)": "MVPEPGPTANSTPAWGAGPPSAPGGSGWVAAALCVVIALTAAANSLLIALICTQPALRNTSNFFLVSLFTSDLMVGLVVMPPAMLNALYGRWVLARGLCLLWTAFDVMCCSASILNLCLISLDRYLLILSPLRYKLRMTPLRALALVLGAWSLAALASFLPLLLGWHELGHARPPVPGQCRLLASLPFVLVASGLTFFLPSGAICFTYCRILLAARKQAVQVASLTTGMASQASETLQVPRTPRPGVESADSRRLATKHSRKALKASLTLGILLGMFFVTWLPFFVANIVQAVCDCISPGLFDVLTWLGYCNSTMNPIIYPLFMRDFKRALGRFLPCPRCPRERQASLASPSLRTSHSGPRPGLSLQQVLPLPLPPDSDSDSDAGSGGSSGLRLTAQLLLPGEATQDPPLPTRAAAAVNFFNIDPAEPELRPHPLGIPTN", "experiment": "NIMH-PDSP radioligand binding assay, 5-HT6", "method": "as §1"}, "PBR": {"biological_target": "T6, PBR (Rattus norvegicus, UniProt P16257)", "T6 construct": "NIMH-PDSP", "experiment": "NIMH-PDSP radioligand binding assay, PBR", "method": "as §1"}, "DOR, KOR, MOR": {"biological_target": "DOR, KOR, MOR", "experiment": "NIMH-PDSP radioligand binding assay, DOR, KOR, MOR"}, "5-HT1E": {"biological_target": "T7, 5-HT1E (Homo sapiens, UniProt P28566)", "T7 construct": "NIMH-PDSP", "T7 sequence (P28566 whole entry, species assumed)": "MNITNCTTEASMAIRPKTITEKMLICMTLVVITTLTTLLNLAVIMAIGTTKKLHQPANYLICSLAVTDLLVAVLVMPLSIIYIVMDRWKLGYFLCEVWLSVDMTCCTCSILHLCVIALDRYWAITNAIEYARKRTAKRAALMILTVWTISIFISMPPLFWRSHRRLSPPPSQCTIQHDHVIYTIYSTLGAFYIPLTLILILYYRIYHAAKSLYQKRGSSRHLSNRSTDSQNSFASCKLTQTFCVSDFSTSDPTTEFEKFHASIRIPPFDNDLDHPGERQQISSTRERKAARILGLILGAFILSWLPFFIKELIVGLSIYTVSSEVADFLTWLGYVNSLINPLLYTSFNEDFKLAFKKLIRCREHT", "experiment": "NIMH-PDSP radioligand binding assay, 5-HT1E", "method": "as §1"}, "Sigma1R": {"biological_target": "T8, Sigma1R (Homo sapiens, UniProt Q99720)", "T8 construct": "NIMH-PDSP", "T8 sequence (Q99720 whole entry, species assumed)": "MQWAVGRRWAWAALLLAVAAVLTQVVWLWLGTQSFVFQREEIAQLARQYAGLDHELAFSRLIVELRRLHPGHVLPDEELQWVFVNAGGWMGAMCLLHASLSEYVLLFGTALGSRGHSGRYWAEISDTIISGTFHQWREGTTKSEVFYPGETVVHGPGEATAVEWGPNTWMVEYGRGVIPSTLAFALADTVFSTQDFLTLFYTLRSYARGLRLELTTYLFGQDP", "experiment": "NIMH-PDSP radioligand binding assay, Sigma1R", "method": "as §1"}, "5-HT5a": {"biological_target": "T9, 5-HT5a (Homo sapiens, UniProt P47898)", "T9 construct": "NIMH-PDSP", "T9 sequence (P47898 whole entry, species assumed)": "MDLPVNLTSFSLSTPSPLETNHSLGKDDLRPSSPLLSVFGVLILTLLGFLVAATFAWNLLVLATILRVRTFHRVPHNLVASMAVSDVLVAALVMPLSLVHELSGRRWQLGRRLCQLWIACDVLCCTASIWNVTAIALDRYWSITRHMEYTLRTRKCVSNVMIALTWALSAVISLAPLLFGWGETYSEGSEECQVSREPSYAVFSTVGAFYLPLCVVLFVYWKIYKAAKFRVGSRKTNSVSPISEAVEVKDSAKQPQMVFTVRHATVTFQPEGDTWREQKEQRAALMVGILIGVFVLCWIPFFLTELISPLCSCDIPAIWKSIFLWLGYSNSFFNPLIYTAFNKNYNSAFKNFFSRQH", "experiment": "NIMH-PDSP radioligand binding assay, 5-HT5a", "method": "as §1"}, "5-HT1A receptors": {"biological_target": "5-HT1A receptors", "parameters": "method as in ref Fiorino et al. [2012], Fiorino et al. [2016], Fiorino et al. [2017]", "conditions": "previous reports, different binding assay methodology; ref Fiorino et al. [2012], Fiorino et al. [2016], Fiorino et al. [2017]; cited from earlier work"}, "5-HT2C [2]": {"biological_target": "T3, 5-HT2C", "parameters": "method as in ref Fiorino et al. [2012]; Fiorino et al. [2016]; Fiorino et al. [2017]", "conditions": "previous preliminary pharmacological screening; ref Fiorino et al. [2012]; Fiorino et al. [2016]; Fiorino et al. [2017]; cited from earlier work"}}, "data": [{"smiles": "COc1ccccc1N1CCN(CCNC(=O)c2ccccn2)CC1", "note": "[Compound 2]", "values": [{"measurement": "Ki", "setting": "D3R", "result": 2.55, "unit": "µM"}, {"measurement": "Ki", "setting": "Alpha1B", "result": 0.254, "unit": "µM"}, {"measurement": "Ki", "setting": "Beta Receptors", "result": "> 10", "unit": "µM"}, {"measurement": "Ki", "setting": "5-HT2C [1]", "result": "> 10", "unit": "µM"}, {"measurement": "Ki", "setting": "5-HT2B", "result": 0.516, "unit": "µM"}, {"measurement": "Ki", "setting": "5-HT6", "result": "> 10", "unit": "µM"}, {"measurement": "Ki", "setting": "PBR", "result": "> 10", "unit": "µM"}, {"measurement": "Ki", "setting": "DOR, KOR, MOR", "result": "> 10", "unit": "µM"}, {"measurement": "Ki", "setting": "5-HT1E", "result": "> 10", "unit": "µM"}, {"measurement": "Ki", "setting": "Sigma1R", "result": "> 10", "unit": "µM"}, {"measurement": "Ki", "setting": "5-HT5a", "result": "> 10", "unit": "µM"}]}, {"smiles": "COc1ccccc1N1CCN(CCCN/C(=N\\C#N)c2ccccn2)CC1", "note": "[Compound 1]", "values": [{"measurement": "Ki", "setting": "D3R", "result": 0.369, "unit": "µM"}, {"measurement": "Ki", "setting": "Alpha1B", "result": 1.08, "unit": "µM"}, {"measurement": "Ki", "setting": "Beta Receptors", "result": "> 10", "unit": "µM"}, {"measurement": "Ki", "setting": "5-HT2C [1]", "result": "> 10", "unit": "µM"}, {"measurement": "Ki", "setting": "5-HT2B", "result": 0.403, "unit": "µM"}, {"measurement": "Ki", "setting": "5-HT6", "result": "> 10", "unit": "µM"}, {"measurement": "Ki", "setting": "5-HT1A receptors", "result": 0.00468, "unit": "µM"}, {"measurement": "Ki", "setting": "PBR", "result": "> 10", "unit": "µM"}, {"measurement": "Ki", "setting": "DOR, KOR, MOR", "result": "> 10", "unit": "µM"}, {"measurement": "Ki", "setting": "5-HT1E", "result": "> 10", "unit": "µM"}, {"measurement": "Ki", "setting": "Sigma1R", "result": 0.52, "unit": "µM"}, {"measurement": "Ki", "setting": "5-HT5a", "result": "> 10", "unit": "µM"}, {"measurement": "affinity to 5-HT2C", "setting": "5-HT2C [2]", "result": "high affinities"}]}]}
